Test results taken from the supplement of paper PMC10307832.

Key:
Assay in all cases: relative viability (nuclei count vs DMSO), 5 days (fraction); higher = more cells survive
[1] = compound: CC1(C)CCC(CN2CCN(c3ccc(C(=O)NS(=O)(=O)c4ccc(NCC5CCOCC5)c([N+](=O)[O-])c4)c(Oc4cnc5[nH]ccc5c4)c3)CC2)=C(c2ccc(Cl)cc2)C1 [Venetoclax] + CC(=O)Nc1cccc(-n2c(=O)n(C3CC3)c(=O)c3c(Nc4ccc(I)cc4F)n(C)c(=O)c(C)c32)c1 [Trametinib] (partner 0.02 µM)
Procedure, shortened: (§1)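 A single step with final 0.05% Triton X-100, 1% formaldehyde and 1 ug/ml Hoechst fixed the cells and stained nuclei 5 days after treatment. Lung cancer cell lines in 1536-well plates had been treated by pin tool the day after seeding with one drug alone or a fixed anchor-drug dose plus five library-drug doses (not always all listed) in √10 steps, and nuclei were counted on 4× images. Relative viability is the ratio of nuclei in treated wells to nuclei in vehicle wells, taken as the median of duplicate plates.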

[2] = compound: CC1(C)CCC(CN2CCN(c3ccc(C(=O)NS(=O)(=O)c4ccc(NCC5CCOCC5)c([N+](=O)[O-])c4)c(Oc4cnc5[nH]ccc5c4)c3)CC2)=C(c2ccc(Cl)cc2)C1 [Venetoclax] + C[C@@H](Oc1cc(-c2cnn(C3CCNCC3)c2)cnc1N)c1c(Cl)ccc(F)c1Cl [Crizotinib] (partner 1 µM)
Procedure, shortened: as §1

[3] = compound: Cn1cnc2c(F)c(Nc3ccc(Br)cc3Cl)c(C(=O)NOCCO)cc21 [Selumetinib] + CC(C)C[C@H](NC(=O)[C@H](Cc1ccccc1)NC(=O)c1cnccn1)B(O)O [Bortezomib] (partner 0.002 µM)
Procedure, shortened: as §1

[4] = compound: Cn1cnc2c(F)c(Nc3ccc(Br)cc3Cl)c(C(=O)NOCCO)cc21 [Selumetinib] + Nc1nc2[nH]cc(CCc3ccc(C(=O)N[C@@H](CCC(=O)O)C(=O)O)cc3)c2c(=O)[nH]1 [Pemetrexed] (partner 0.2 µM)
Procedure, shortened: as §1

UMC-11 showed a relative viability ([1]; first compound 0.01 µM) of 0.674, a relative viability ([1]; first compound 0.03162 µM) of 0.74 and a relative viability ([1]; first compound 0.1 µM) of 0.713. It also gave a relative viability ([1]; first compound 0.3162 µM) of 0.664, a relative viability ([1]; first compound 1 µM) of 0.749 and a relative viability ([2]; first compound 0.01 µM) of 0.625. For the same cell line, the relative viability ([2]; first compound 0.03162 µM) was 0.622, the relative viability ([2]; first compound 0.1 µM) was 0.653 and the relative viability ([2]; first compound 0.3162 µM) was 0.636. For the same cell line, the relative viability ([2]; first compound 1 µM) was 0.614, the relative viability ([3]; first compound 0.02 µM) was 0.685 and the relative viability ([3]; first compound 0.06325 µM) was 0.589. It also gave a relative viability ([3]; first compound 0.2 µM) of 0.974, a relative viability ([3]; first compound 0.6325 µM) of 0.848 and a relative viability ([4]; first compound 0.02 µM) of 0.771. The relative viability ([4]; first compound 0.06325 µM) was 0.788, the relative viability ([4]; first compound 0.2 µM) was 0.827 and the relative viability ([4]; first compound 0.6325 µM) was 0.903.
